Measurements reported in patent US10822587B2, “T cell balance gene expression, compositions of matters and methods of use thereof” (The Broad Institute, Inc., priority 2013, dated 2020).
“Also recorded” adds a separate entry of the source.

Experiments:
[1] = molecular target: T1, PROCR (Mus musculus, UniProt Q64695); experiment: Quantitative RT-PCR of pathogenic signature genes in Th17 cells differentiated in the presence of activated protein C; type: cell-based
T1 construct: endogenous in cells; host or cells: primary naïve CD4+ T cells (mouse spleen/lymph node) polarized to Th17 with TGF-β1 + IL-6
T1 sequence (Q64695 18-242): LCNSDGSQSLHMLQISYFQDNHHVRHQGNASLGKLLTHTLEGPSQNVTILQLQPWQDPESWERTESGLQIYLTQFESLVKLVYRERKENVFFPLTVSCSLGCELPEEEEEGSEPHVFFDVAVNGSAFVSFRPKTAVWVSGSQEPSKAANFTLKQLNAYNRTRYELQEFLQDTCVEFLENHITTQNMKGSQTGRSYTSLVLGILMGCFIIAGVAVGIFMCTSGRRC
Text: FIG. 23A depicts quantitative RT-PCR analysis of mRNA expression of several pathogenic signature genes in Th17 cells differentiated with TGFβ1 and IL-6 in the presence of activated protein C (aPC) for 3 days in vitro. FIG. 23B depicts quantitative RT-PCR analysis of mRNA expression of several pathogenic signature genes in naïve CD4^+ T cells polarized under Th17 conditions, transduced with either GFP control retrovirus (Control RV) or PROCR-expressing retrovirus (PROCR RV) for 3 days. FIG. 23C depicts quantitative RT-PCR analysis of mRNA expression of several pathogenic signature genes in Th17 cells from EPCR δ/δmice and control mice differentiated with TGFβ1 and IL-6 for 3 days in vitro.
FIGS. 32A, 32B, 32C and 32D are a series of graphs depicting how PROCR and PD-1 expression affects Th17 pathogenicity. FIG. 32A depicts signature genes of pathogenic and non-pathogenic Th17 cells. Naïve CD4+ T cells were differentiated into non-pathogenic (TGFβ+IL-6) or pathogenic (TGFβ3+IL-6 or IL-β+IL-6) Th17 cells and PROCR expression was determined by quantitative PCR. FIG. 32B depicts how naïve WT or PROCRd/d CD4+ T cells were stimulated under Th17 polarizing conditions (TGFβ+IL-6) in the presence or absence of aPC. Quantitative expression of three pathogenic signature genes was determined on day 3. […] Mice were monitored for EAE. […]. […]

[2] = system: Th17 cells; experiment: IL-17 / IFN-γ production of Th17 cells differentiated with activated protein C (intracellular staining, ELISA); type: cell-based, mouse; settings: aPC 300 nM, anti-CD3/anti-CD28, TGF-β+IL-6; flow cytometry day 3, ELISA day 3 and 5
Procedure: FIG. 20A depicts how naïve CD4+ T cells were differentiated into Th17 cells by anti-CD3/anti-CD28 stimulation in the presence of activated protein C (aPC, 300 nM), the ligand of PROCR. On day 3, cells were stimulated with PMA and Ionomycin for 4 hr, stained intracellularly for IFN-γ and IL-17 and analyzed by flow cytometry. FIG. 20B depicts IL-17 production from Th17 cells (TGF-β+IL-6) differentiated with or without activated protein C (aPC and Ctl, respectively) was assessed by ELISA on Day 3 and 5. FIG. 20C depicts how naïve CD4+ T cells were polarized under Th17 conditions (TGF-β+IL-6), transduced with either GFP control retrovirus (Ctl RV) or PROCR-expressing retrovirus (PROCR RV). Intracellular expression of IFN-γ and IL-17 in GFP+ cells were assessed by flow cytometry. FIG. 20D depicts how naïve CD4+ T cells from EPCR δ/δmice and control mice were polarized under Th17 conditions with TGF-β1 and IL-6. Intracellular expression of IFN-γ and IL-17 were assessed by flow cytometry. […]
Naïve T cells from knockout mice and their wild type controls were cultured as described above, their supernatants were collected after 72 h, and cytokine concentrations were determined by ELISA (antibodies for IL-17 and IL-10 from BD Bioscience) or by cytometric bead array for the indicated cytokines (BD Bioscience), according to the manufacturers' instructions (FIG. 5, FIG. 16).

activated protein C
mRNA expression of pathogenic signature genes ([1]; Th17 cells differentiated with TGFβ1 and IL-6 in the presence of aPC for 3 days in vitro): impairs some pathogenic signature genes in Th17 cells; also recorded: induces a downregulation of the pathogenic signature genes IL-3, CXCL3, CCL4 and Pdp; also recorded: decreased the expression of some of the genes identified as a part of the pathogenic signature of Th17 cells
expression of non-pathogenic signature genes ([1]; Th17 polarizing conditions (TGFβ+IL-6) in the presence or absence of aPC, day 3): induces some non-pathogenic signature genes
cytokine production (IL-17, IFN-γ) from Th17 cells [2]: not essential for cytokine production from Th17 cells
